± gives the standard deviation of the averaged measurements.
What was measured:
Experiment in all cases: level (log10 ratio to DMSO vehicle control); higher = higher biomarker level / cell amount than vehicle control
Conditions in all cases: in DMSO
[1] = compound: O=C(O)C(F)(F)C(F)(F)C(F)F [4H-Perfluorobutanoic acid]
Procedure: (§1)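 BioMAP Diversity Plus panel of 12 human primary cell co-culture systems (3C, 4H, LPS, SAg, BT, BF4T, BE3C, CASM3C, HDF3CGF, KF3CT, MyoF, Mphg). Compounds were added 1 h before stimulation and left for 24 h (MyoF 48 h; BT 72 h for soluble read-outs or 6 d for IgG). Biomarkers were read by ELISA, cytotoxicity by SRB, PBMC viability and proliferation by Alamar Blue. Each well value was divided by the mean of 8 DMSO control wells on the same plate and log10 transformed; duplicate blinded samples were tested at 4 concentrations.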

Perfluoroheptanoic acid = compound: O=C(O)C(F)(F)C(F)(F)C(F)(F)C(F)(F)C(F)(F)C(F)(F)F [Perfluoroheptanoic acid]
Procedure: as §1

[2] = compound: FC(F)(F)C(F)(C(F)(F)F)C(F)(F)C(F)(F)CC1CO1 [3-(Perfluoro-3-methylbutyl)-1,2-propenoxide]
Procedure: as §1

Perfluoropentanoic acid = compound: O=C(O)C(F)(F)C(F)(F)C(F)(F)C(F)(F)F [Perfluoropentanoic acid]
Procedure: as §1

[3] = compound: OCC(F)(F)OC(F)(F)C(F)(F)OC(F)(F)CO [1H,1H,8H,8H-Perfluoro-3,6-dioxaoctane-1,8-diol]
Procedure: as §1

[4] = compound: FC(F)(F)C(F)(F)C(F)(F)C(F)(F)C(F)(F)C(F)(F)C(F)(F)C(F)(F)CCS [2-(Perfluorooctyl)ethanthiol]
Procedure: as §1

[5] = compound: O=C(O)C(F)(F)C(F)(F)OC(F)(F)F [Perfluoro-3-methoxypropanoic acid]
Procedure: as §1

Test System | level (log10) ([1]; 6700 nM) | level (log10) ([1]; 20000 nM) | level (log10) ([1]; 60000 nM) | level (log10) (Perfluoroheptanoic acid; 6700 nM) | level (log10) (Perfluoroheptanoic acid; 20000 nM) | level (log10) (Perfluoroheptanoic acid; 60000 nM) | level (log10) ([2]; 6700 nM) | level (log10) ([2]; 20000 nM) | level (log10) (Perfluoropentanoic acid; 6700 nM) | level (log10) (Perfluoropentanoic acid; 20000 nM) | level (log10) (Perfluoropentanoic acid; 60000 nM) | level (log10) ([3]; 6700 nM) | level (log10) ([3]; 20000 nM) | level (log10) ([3]; 60000 nM) | level (log10) ([4]; 6700 nM) | level (log10) ([4]; 20000 nM) | level (log10) ([5]; 6700 nM) | level (log10) ([5]; 20000 nM) | level (log10) ([5]; 60000 nM)
CASM3C:M-CSF | 0.004 ± 0.045 | -0.009 ± 0.016 | 0.059 ± 0.027 | -0.004 ± 0.028 | -0.005 ± 0.028 | 0.0035 ± 0.049 | -0.0175 ± 0.0021 | 0.008 ± 0.042 | -0.0055 ± 0.016 | -0.004 ± 0.017 | 0.0045 ± 0.032 | -0.014 ± 0.0014 | -0.0105 ± 0.005 | 0.0115 ± 0.0092 | 0.013 ± 0.0014 | 0.047 ± 0.014 | -0.001 ± 0.011 | -0.001 ± 0.03 | 0.031 ± 0.0071
lMphg:CD69 | 0.0185 ± 0.032 | -0.0175 ± 0.0021 | 0.0095 ± 0.019 | -0.019 ± 0.038 | -0.021 ± 0.041 | -0.0205 ± 0.064 | -0.0115 ± 0.054 | -0.0375 ± 0.069 | -0.0315 ± 0.0092 | -0.0525 ± 0.013 | 0.0175 ± 0.077 | -0.0305 ± 0.0064 | -0.041 ± 0.025 | -0.0145 ± 0.13 | -0.0425 ± 0.039 | -0.069 ± 0.045 | -0.0495 ± 0.043 | -0.0005 ± 0.026 | 0.017 ± 0.04
3C:CD54/ICAM-1 | -0.016 ± 0.0014 | -0.0105 ± 0.018 | 0.0025 ± 0.0092 | 0.0025 ± 0.0035 | -0.0095 ± 0.0092 | 0.008 ± 0.023 | -0.0055 ± 0.00071 | -0.0025 ± 0.0064 | -0.0145 ± 0.03 | -0.028 ± 0.021 | -0.0075 ± 0.022 | -0.0015 ± 0.016 | -0.0005 ± 0.0064 | -0.0035 ± 0.011 | -0.0055 ± 0.012 | 0.0005 ± 0.016 | -0.001 ± 0.021 | -0.034 ± 0.0028 | -0.0055 ± 0.029
HDF3CGF:Collagen I | -0.0445 ± 0.028 | -0.024 ± 0.072 | 0.0525 ± 0.029 | -0.036 ± 0.045 | -0.009 ± 0.024 | 0.0395 ± 0.061 | 0.003 ± 0.078 | -0.0135 ± 0.15 | -0.0295 ± 0.012 | -0.01 ± 0.0014 | 0.003 ± 0.064 | -0.025 ± 0.018 | -0.023 ± 0.0042 | 0.02 ± 0.092 | 0.0055 ± 0.052 | 0.0125 ± 0.052 | -0.0095 ± 0.07 | -0.0085 ± 0.052 | 0.058 ± 0.025
HDF3CGF:TIMP-1 | -0.015 ± 0.031 | -0.007 ± 0.0014 | 0.0115 ± 0.021 | -0.0015 ± 0.00071 | -0.0115 ± 0.0035 | -0.0055 ± 0.035 | -0.012 ± 0.035 | -0.035 ± 0.033 | -0.0195 ± 0.0021 | -0.032 ± 0.014 | 0.0115 ± 0.011 | -0.007 ± 0.025 | -0.0015 ± 0.016 | 0.0065 ± 0.023 | -0.017 ± 0.013 | -0.035 ± 0.0042 | -0.0285 ± 0.026 | 0.0185 ± 0.005 | 0.036 ± 0.071
MyoF:bFGF | -0.023 ± 0.016 | -0.007 ± 0.02 | 0.0045 ± 0.012 | -0.029 ± 0.0085 | -0.0255 ± 0.013 | -0.0075 ± 0.0021 | 0.006 ± 0.0099 | -0.001 ± 0.0042 | -0.021 ± 0.0014 | -0.0085 ± 0.0078 | -0.0055 ± 0.0035 | -0.001 ± 0.016 | 0.0075 ± 0.011 | 0.004 ± 0.0057 | -0.0075 ± 0.019 | -0.017 ± 0.0014 | 0.002 ± 0.018 | -0.004 ± 0.037 | 0.0045 ± 0.025
MyoF:Collagen I | -0.0215 ± 0.022 | -0.0115 ± 0.018 | -0.0115 ± 0.0092 | -0.0225 ± 0.011 | -0.006 | 0.0055 ± 0.043 | 0 ± 0.0099 | -0.017 ± 0.017 | -0.0065 ± 0.0092 | -0.008 ± 0.0085 | 0.0065 ± 0.015 | 0.0045 ± 0.021 | -0.0165 ± 0.052 | -0.015 ± 0.04 | -0.001 ± 0.042 | -0.0265 ± 0.029 | 0.006 ± 0.02 | 0 ± 0.016 | 0.0165 ± 0.013
3C:CD62E/E-Selectin | -0.024 | -0.0235 ± 0.0092 | 0.017 ± 0.03 | 0.007 ± 0.0042 | 0.0125 ± 0.0078 | 0.0185 ± 0.00071 | -0.0215 ± 0.0078 | -0.0115 ± 0.013 | -0.0085 ± 0.0035 | 0.0005 ± 0.0064 | 0.0175 ± 0.026 | 0.0085 ± 0.0035 | 0.003 | -0.003 ± 0.0085 | -0.0065 ± 0.03 | -0.0235 ± 0.036 | 0.0015 ± 0.016 | -0.0155 ± 0.016 | 0.0005 ± 0.0078
CASM3C:CCL2/MCP-1 | 0.006 | -0.0065 ± 0.012 | 0.0065 ± 0.016 | -0.0115 ± 0.015 | -0.013 ± 0.011 | 0.032 ± 0.044 | -0.003 ± 0.0071 | 0.004 ± 0.031 | -0.0085 ± 0.005 | -0.0125 ± 0.019 | -0.0015 ± 0.015 | -0.026 ± 0.041 | -0.022 ± 0.017 | -0.017 ± 0.013 | 0.008 ± 0.0014 | 0.0155 ± 0.0092 | -0.0175 ± 0.032 | -0.0215 ± 0.03 | 0.017 ± 0.0099
BE3C:tPA | -0.016 ± 0.0014 | -0.0305 ± 0.012 | -0.006 ± 0.016 | -0.0205 ± 0.026 | -0.0255 ± 0.0078 | 0.017 ± 0.031 | -0.0215 ± 0.04 | -0.037 ± 0.033 | -0.059 ± 0.011 | -0.043 ± 0.017 | -0.013 ± 0.064 | -0.014 ± 0.021 | -0.0255 ± 0.03 | -0.0225 ± 0.00071 | 0.0105 ± 0.0064 | 0.0165 ± 0.016 | -0.007 ± 0.04 | -0.0075 ± 0.019 | 0.004 ± 0.0071
CASM3C:CXCL9/MIG | -0.0035 ± 0.028 | 0.0125 ± 0.00071 | 0.032 ± 0.017 | 0.006 ± 0.023 | 0.015 ± 0.016 | 0.054 ± 0.051 | -0.015 ± 0.014 | -0.001 ± 0.017 | 0.001 ± 0.062 | -0.0015 ± 0.036 | 0.043 ± 0.017 | 0.0055 ± 0.012 | 0.0175 ± 0.011 | 0.0205 ± 0.0035 | -0.0025 ± 0.023 | 0.0395 ± 0.0064 | -0.0175 ± 0.0078 | 0.0065 ± 0.005 | 0.027 ± 0.024
KF3CT:CCL2/MCP-1 | -0.0705 ± 0.0092 | -0.032 ± 0.0099 | -0.0115 ± 0.023 | 0.0165 ± 0.021 | 0.033 ± 0.024 | 0.0255 ± 0.053 | -0.004 ± 0.03 | 0.022 ± 0.04 | 0.002 ± 0.02 | -0.025 ± 0.025 | 0.0215 ± 0.05 | -0.0075 ± 0.026 | -0.022 ± 0.011 | 0.0235 ± 0.061 | -0.0125 ± 0.011 | -0.0285 ± 0.0092 | 0.0035 ± 0.011 | -0.0165 ± 0.0092 | -0.011 ± 0.013
CASM3C:CD87/uPAR | -0.016 ± 0.013 | 0 ± 0.02 | 0.0055 ± 0.022 | -0.0005 ± 0.0078 | -0.019 ± 0.031 | -0.0055 ± 0.036 | -0.013 ± 0.016 | 0.002 ± 0.017 | -0.027 ± 0.052 | -0.031 ± 0.027 | -0.0175 ± 0.005 | 0.0135 ± 0.00071 | -0.0085 ± 0.0078 | -0.016 ± 0.0085 | -0.0395 ± 0.053 | -0.0205 ± 0.04 | -0.021 ± 0.048 | -0.0235 ± 0.035 | -0.031 ± 0.033
lMphg:CXCL8/IL-8 | 0.024 ± 0.0028 | 0.0145 ± 0.0021 | 0.0315 ± 0.011 | -0.0125 ± 0.0035 | 0.032 ± 0.0042 | 0.18 ± 0.035 | 0.0165 ± 0.035 | 0.052 ± 0.023 | 0.005 ± 0.031 | -0.0275 ± 0.013 | 0.044 ± 0.064 | 0.0065 ± 0.079 | 0.007 ± 0.072 | 0.0235 ± 0.1 | -0.012 ± 0.016 | 0.008 ± 0.016 | -0.03 ± 0.065 | -0.0275 ± 0.025 | -0.001 ± 0.044
KF3CT:CXCL9/MIG | -0.004 ± 0.016 | -0.011 ± 0.011 | -0.007 ± 0.0071 | -0.0085 ± 0.005 | -0.0015 ± 0.0035 | 0.011 ± 0.013 | 0.005 ± 0.014 | 0.001 ± 0.013 | -0.002 ± 0.0057 | -0.0055 ± 0.0021 | 0.0085 ± 0.013 | 0.001 ± 0.011 | 0.006 ± 0.0085 | 0.0015 ± 0.0092 | 0.016 ± 0.018 | 0.014 ± 0.0042 | 0.0125 ± 0.0064 | 0.008 ± 0.0099 | 0.021 ± 0.0014
MyoF:CD106/VCAM-1 | -0.0065 ± 0.011 | -0.017 ± 0.0071 | 0.0135 ± 0.015 | -0.013 ± 0.0071 | -0.004 ± 0.016 | -0.0125 ± 0.015 | 0.008 ± 0.011 | -0.0305 ± 0.019 | 0.0025 ± 0.005 | 0.001 | -0.001 ± 0.0057 | 0.0075 ± 0.019 | -0.009 ± 0.0071 | -0.0045 ± 0.015 | 0.0155 ± 0.00071 | -0.0735 ± 0.083 | -0.014 ± 0.0042 | 0.0035 ± 0.013 | 0.001

— the supplement of paper PMC10331698
